In patent publication US10456359B2, “Synergistic beverage composition” (Harsha Chigurupati, priority 2015, dated 2019):
Where a SMILES comes first, the peptide text is derived from it.

Columns and labels:
[1] = test system: serum alanine aminotransferase (ALT); experiment: Hepatoprotection study, serum ALT, alcohol 5 days; assay type: in vivo, Wistar albino rats; conditions: Pro: Protection (%), rats, alcohol 4 gm/kg/day p.o.
[2] = test system: aspartate aminotransferase (AST); experiment: Hepatoprotection study, serum AST, alcohol 5 days; assay type: in vivo, Wistar albino rats; conditions: Pro: Protection (%), rats, alcohol 4 gm/kg/day p.o.
[3] = test system: serum C-reactive protein (CRP); experiment: CNS/immunology study, serum CRP, alcohol 5 days; assay type: in vivo, Wistar albino rats; conditions: Pro: Protection (%), rats, alcohol 5 Day
Text: (§1) For hangover, 1 day immunology parameter were considered and for CNS, 5 days immunology parameter were considered.

[4] = test system: interleukin-12 (IL-12); experiment: CNS/immunology study, serum IL-12, alcohol 5 days; assay type: in vivo, Wistar albino rats; conditions: Pro: Protection (%), rats, alcohol 5 Day
Text: as §1

[5] = test system: Monocyte chemoattractant protein-1 (MCP-1); experiment: CNS/immunology study, serum MCP-1, alcohol 5 days; assay type: in vivo, Wistar albino rats; conditions: Pro: Protection (%), rats, alcohol 5 Day
Method: (§2) The lowest detectable limit of the kit is 0.1 ng/ml (Wang L, Li Y, Chen J, et al. “Ischemic Cerebral Tissue and MCP-1 Enhance Rat Bone Marrow Stromal Cell Migration in Interface Culture.” Experimental Hematology, 30, 7, 2002, 831-836).
as §1

[6] = test system: Interferon gamma (IFN-γ); experiment: CNS/immunology study, serum IFN-gamma, alcohol 5 days; assay type: in vivo, Wistar albino rats; conditions: Pro: Protection (%), rats, alcohol 5 Day
Text: (§3) Distilled ethanol was obtained from Bengal Chemicals, West Bengal, India. Biochemical kits like AST, ALT, ALP and total protein were obtained from Span Diagnostics Ltd. Surat, India. Rat IL-12 ELISA kit (Elabscience Biotechnology Co. Ltd, WuHan, P.R.C.), Rat CRP ELISA kit (BD Biosciences, USA), Rat IFN-gamma ELISA kit (Biolegend, San Diego, Calif.) Rat MCP-1 ELISA kit (Elabscience Biotechnology Co. Ltd, WuHan, P.R.C.). All the chemicals used in the present study were of analytical grade and obtained from the following companies: Sigma (St. Louis, Mo., USA), Merck (Mumbai, India), S D fine chemicals (Mumbai, India) and Qualigen (Mumbai, India).
as §1

[7] = test system: interleukin-12 (IL-12) from brain homogenate; experiment: CNS study, IL-12 from brain homogenate, alcohol 5 days; assay type: in vivo, Wistar albino rats; conditions: rats, alcohol 5 Day; for Brain IL12 Pro: Pro: Protection (%)
[8] = test system: Monocyte chemoattractant protein-1 (MCP-1) from brain homogenate; experiment: CNS study, MCP-1 from brain homogenate, alcohol 5 days; assay type: in vivo, Wistar albino rats; conditions: rats, alcohol 5 Day; for Brain MCP-1 Pro: Pro: Protection (%)
[9] = test system: spatial learning and memory; experiment: Morris water maze task (escape latency), alcohol 5 days; assay type: in vivo, Wistar albino rats; conditions: Pro: Protection (%), rats, alcohol 5 day
[10] = test system: serum C-reactive protein (CRP); experiment: Hangover study, serum CRP, alcohol 1 day; assay type: in vivo, Wistar albino rats; conditions: 1 Day alcohol
Text: as §1

[11] = test system: interleukin-12 (IL-12); experiment: Hangover study, serum IL-12, alcohol 1 day; assay type: in vivo, Wistar albino rats; parameters: concentration or dose not given beside the values; conditions: 1 Day alcohol
Text: as §1

[12] = test system: Monocyte chemoattractant protein-1 (MCP-1); experiment: Hangover study, serum MCP-1, alcohol 1 day; assay type: in vivo, Wistar albino rats; parameters: concentration or dose not given beside the values; conditions: 1 Day alcohol
Method: as §2, §1

[13] = test system: Interferon gamma (IFN-γ); experiment: Hangover study, serum IFN-gamma, alcohol 1 day; assay type: in vivo, Wistar albino rats; parameters: concentration or dose not given beside the values; conditions: 1 Day alcohol
Text: as §3, §1

[14] = test system: interleukin-12 (IL-12) from brain homogenate; experiment: Hangover study, IL-12 from brain homogenate, alcohol 1 day; assay type: in vivo, Wistar albino rats; parameters: concentration or dose not given beside the values; conditions: 1 Day alcohol
[15] = test system: Monocyte chemoattractant protein-1 (MCP-1) from brain homogenate; experiment: Hangover study, MCP-1 from brain homogenate, alcohol 1 day; assay type: in vivo, Wistar albino rats; conditions: 1 Day alcohol
[16] = test system: alkaline phosphatase (ALP); conditions: Pro: Protection (%); rats, alcohol 4 gm/kg/day p.o., 5 days, serum
Method: The levels of alanine aminotransferase (ALT), aspartate aminotransferase (AST) and alkaline phosphatise (ALP) in serum were measured using commercial spectrophotometric kit bought from Span Diagnostic Ltd. (www.span.in) according to the manufacturer's protocols.
12-16 hours after the last dose, the animals were sacrificed and blood samples were collected for estimation of biochemical parameters.
Male Wistar albino rats weighing 150-200 g were procured and randomly divided into groups consisting of twelve (12) animals in each group. Hepatoprotection was induced by alcohol in rats by oral administration of 30% alcohol (4 gm/kg/day, p.o.) for 5 days and this group served as the negative control and treated groups received different formulation.
All drug solutions were prepared in 40% aqueous alcohol, adjusting the pH in the range of 5.0-10.0 for evaluation of alcohol induced Hepatoprotection. This solution was further diluted with distilled water to obtain 30% aqueous alcoholic solution and administered orally by gavage to different rats group of step (a).

[17] = test system: acetylcholinesterase activity of brain homogenate; conditions: Pro: Protection (%), rats, alcohol 5 Day
Method: (§4) We have included this parameter to evaluate cognition and memory deficit in experimental animals.
(§5) Experimental Design • (b) Animal study model 1: Saline/Alcohol (4.0 gm/kg/day, p.o.)/Formulation with alcohol (4.0 gm/kg/day, p.o.) were administered (fed orally by orogastric cannula) for one day. 12-16 hours after the dose the animals were sacrificed and blood samples will be collected for estimation of biochemical parameters. Whole brain without cerebellum were dissected out, 10% homogenate was prepared with 0.1 M PB (pH 7.4). The homogenate solution was centrifuged at 10000 rpm for 20 minutes at 4° C. and the supernatant was used for estimation of acetylcholinesterase activity, which was estimated by Ellman's method (Ellman G L et al. A new and rapid colorimetric determination of acetylcholinesterase activity. Biochem Pharmacol, 1961, 7:88.) • (c) Animal study model 2: Saline/Alcohol (4.0 gm/kg/day, p.o.)/Formulation with alcohol (4.0 gm/kg/day, p.o.) were administered (fed orally by orogastric cannula) for 5 consecutive days. 12-16 hours after the last dose, the animals were sacrificed and blood samples were collected for estimation of biochemical parameters. Whole brain without cerebellum were dissected out, 10% homogenate was prepared with 0.1 M PB (pH 7.4). The homogenate solution was centrifuged at 10000 rpm for 20 minutes at 4° C. and the supernatant was used for estimation of acetylcholinesterase activity. […] The latency period of day 5 (before alcohol) was compared with post alcohol latency period (Vorhees C V and Williams M T. Morris water maze: procedures for assessing spatial and related forms of learning and memory, Nat Protoc, 2006, 1(2): 848-58.). % Protection Calculated in Above Experiments: % Protection=1−[(T−NS)/(AL−NS)]×100 T=Mean value of drug treated, NS=Mean value of normal control, AL=Mean value of alcohol alone.
(§6) Male Wistar albino rats weighing 150-200 g were procured and randomly divided into groups consisting of twelve (12) animals in each group. Alcohol induced hangover and CNS related biochemical changes and memory function in rats by oral administration of 30% alcohol (4 gm/kg/day, p.o.) for 1 and 5 days and this group served as the negative control and treated groups received different formulation.
(§7) All drug solutions were prepared in 40% aqueous alcohol, adjusting the pH in the range of 5.0-10.0 for evaluation of alcohol induced hangover and CNS related biochemical parameters.

[18] = test system: acetylcholinesterase activity of brain homogenate; conditions: Hangover study, 1 Day alcohol; ingredient amounts in mass concentration (%)
Method: as §4, §5, §6, §7

[19] = test system: serum ALT, AST and ALP; experiment: Hepatoprotection study overall (rise of serum ALT, AST and ALP), 5 alcohol doses; assay type: in vivo, Wistar albino rats; conditions: 5 alcohol doses of 4 gm/kg per oral

Row | SMILES | ALT Pro [1] | AST Pro [2] | CRP Pro [3] | IL12 Pro [4] | MCP-1 Pro [5] | IFN-Gamma Pro [6] | Brain IL12 Pro [7] | Brain MCP-1 Pro [8] | WATER MAZE Pro [9] | CRP Pro (Protection) [10] | IL12 Pro (Protection) [11] | MCP-1 Pro (Protection) [12] | IFN-Gamma Pro (Protection) [13] | Brain IL12 Pro (Protection) [14] | Brain MCP-1 Pro (Protection) [15] | ALP Pro [16] | ACHe Pro [17] | ACHe Pro (Protection) [18] | other results
1 | CC1(C(=O)O)CCC2(C)CCC3(C)C(=CC(=O)C4C5(C)CCC(OC6OC(C(=O)O)C(O)C(O)C6OC6OC(C(=O)O)C(O)C(O)C6O)C(C)(C)C5CCC43C)C2C1 (stereo not drawn) [0.1 GA, 18β-GA] | 4.24% | 8.25% | 5.19% | 5.85% | 0% | 0% | 3.66% | 3.58% | 5.32% | 5.15% | 2.6% | 3.79% | 2.58% | 3.16% | 4.25% | 6.29% | 9.4% | 11.79% | 
2 | C/C=C/C=C/C(=O)[O-].[K+] [0.1 KS, Potassium Sorbate] | 0.11% | 0.09% | 0.87% | 1.2% | 1.04% | 0% | 0.00% | 0% | 1.31% | 1.2% | 0.89% | 0.16% | 0.11% | 0.24% | 0.19% | 0% | 0% | 0.24% | Brain IL12 Syn ([7]; Syn: Synergism (%)): 0%; Brain MCP-1 Syn ([8]; Syn: Synergism (%)): 0%
3 | CC1(C(=O)O)CCC2(C)CCC3(C)C(=CC(=O)C4C5(C)CCC(OC6OC(C(=O)O)C(O)C(O)C6OC6OC(C(=O)O)C(O)C(O)C6O)C(C)(C)C5CCC43C)C2C1 (stereo not drawn) [0.04 GA, 18β-GA] | 0.89% | 2.18% | 2.37% | 3.08% | 3.38% | 1.07% | 1.28% | 1.58% | 1.58% | 2.04% | 1.05% | 0.6% | 1.25% | 1.09% | 1.15% | 2.78% | 1.43% | 0.59% | 
4 | CC1(C(=O)O)CCC2(C)CCC3(C)C(=CC(=O)C4C5(C)CCC(OC6OC(C(=O)O)C(O)C(O)C6OC6OC(C(=O)O)C(O)C(O)C6O)C(C)(C)C5CCC43C)C2C1 (stereo not drawn) [0.04a GA, 18α-GA] | 1.26% | 2.24% | 0.1% | 0.1% | 0.1% | 0.1% | 0.1% | 0.1% | 2.1% | 0.1% | 0.1% | 0.1% | 0.1% | 0.1% | 0.1% | 1.08% | 0.1% | 0.1% | 
5 | C[C@H](N)C(=O)N[C@@H](CCC(N)=O)C(=O)O [0.5 DP, L-Ala-L-Gln] (H-Ala-Gln-OH) | 9.13% | 5.86% | 6.13% | 2.64% | 0.1% | 3.32% | 2.35% | 5.12% | 5.18% | 4.05% | 0.54% | 4.33% | 2.58% | 3.69% | 4.59% | 6.95% | 4.33% | 4.33% | 
6 | C[C@H](N)C(=O)N[C@@H](CCC(N)=O)C(=O)O [0.75 DP, L-Ala-L-Gln] (H-Ala-Gln-OH) | 5.28% | 9.14% | 3.78% | 13.88% | 0.75% | 5.62% | 7.01% | 9.63% | 13.15% | 15.93% | 14.84% | 5.25% | 6.38% | 7.14% | 10.14% | 12.24% | 6.73% | 8.94% | 
7 | CC1(C(=O)O)CCC2(C)CCC3(C)C(=CC(=O)C4C5(C)CCC(OC6OC(C(=O)O)C(O)C(O)C6OC6OC(C(=O)O)C(O)C(O)C6O)C(C)(C)C5CCC43C)C2C1 (stereo not drawn) [GA, 18-beta-Glycyrrhizin] |  |  |  |  |  |  |  |  |  |  |  |  |  |  |  |  |  |  | degree of protection ([19]; GA as such at 0.04-0.3%): 5-25%
8 | C[C@H](N)C(=O)N[C@@H](CCC(N)=O)C(=O)O [L-alanine-L-glutamine (DP), L-alanyl-L-glutamine] (H-Ala-Gln-OH) |  |  |  |  |  |  |  |  |  |  |  |  |  |  |  |  |  |  | degree of protection ([19]; dose level of 0.5 to 1.0%): mild effect; degree of protection ([19]; higher doses (2.0 to 3.0%)): high degree of protection
9 | OC[C@@H](O)[C@@H](O)[C@H](O)[C@H](O)CO [Mannitol, D-Mannitol] |  |  |  |  |  |  |  |  |  |  |  |  |  |  |  |  |  |  | degree of protection ([19]; individual ingredient at 0.5 to […]): 10-38%
